Data set [1] can be described thus: Inhibition of Zika virus RNA N7 methyltransferase.
A short description of data set [2]: Inhibition of Dengue virus RNA N7 methyltransferase.
Data set [3] relates to Dengue virus. Description: Antiviral activity DENV infected in African green monkey Vero 76 cells assessed as virus-induced cytopathic effect. The format is functional, organism-based.
For another data set, the system named is HepG2. Description: Cytotoxicity against human HepG2 cells.
The next data set concerns THP-1. Description: Cytotoxicity against human THP-1 cells.
The test system of data set [4] is dengue virus type 1. The data set is described as follows: Antiviral activity against DENV-1 NS5 infected in African green monkey Vero cells. It is filed as functional, organism-based.
Data set [5] concerns dengue virus type 3. Description: Antiviral activity against DENV-3 NS5 infected in African green monkey Vero cells. It is filed as functional, organism-based.
A short description of data set [6]: Inhibition of DENV-3 full length NS5/RNA-dependent RNA polymerase. Also on record: species or system dengue virus type 3.
Data set [7] concerns dengue virus type 2. Description: Antiviral activity against DENV-2 NS5 infected in African green monkey Vero cells. The format is functional, organism-based.
Data set [8] is described as follows: Selectivity index, ratio of CC50 for cytotoxicity against African green monkey Vero cells to EC50 for antiviral activity against Zika virus RNA-dependent RNA polymerase infected in African green monkey Vero cells. The settings on record: read-out: Ratio CC50/EC50. The format is toxicity, cell-based.
Data set [9] can be described thus: Cytotoxicity against African green monkey Vero cells incubated for 4 hrs by Cell-titer glo assay. It is filed as toxicity, cell-based. The settings on record: chlorocebus sabaeus.
For data set [10], the system named is Zika virus. The data set is described as follows: Antiviral activity against Zika virus RNA-dependent RNA polymerase infected in African green monkey Vero cells. The format is functional, organism-based.
The subject of data set [11] is Zika virus. The data set is described as follows: Antiviral activity against Zika virus. The format is functional, organism-based.
A further data set has as its target NS5 (Zika virus, UniProt A0A143MHK7). The data set is described as follows: Inhibition of Zika virus RNA-dependent RNA polymerase.
In data set [12] the test system is Dengue virus. Description: Antiviral activity against DENV. It is filed as functional, organism-based.
Data set [13] deals with Dengue virus. Description: Antiviral activity against DENV RNA-dependent RNA polymerase infected in human PBMC. The format is functional, organism-based.
Data set [14] concerns dengue virus type 2. Description: Antiviral activity against DENV-2. The format is functional, organism-based.
A short description of data set [15]: Binding affinity to DENV-2 RNA-dependent RNA polymerase assessed as dissociation constant using GTP as substrate. More on the design: species or system dengue virus type 2.
Data set [16] in a line: Binding affinity to DENV RNA-dependent RNA polymerase assessed as dissociation constant. Also on record: species or system Dengue virus.
The subject of data set [17] is dengue virus type 2. Description: Antiviral activity against DENV-2 infected hamster BHK-21 cells assessed as reduction in viral replication incubated for 4 hrs. The format is functional, organism-based.
Data set [18] deals with dengue virus type 1. The data set is described as follows: Antiviral activity against DENV-1 infected hamster BHK-21 cells assessed as reduction in viral replication incubated for 4 hrs. The format is functional, organism-based.
Data set [19] deals with dengue virus type 4. Description: Antiviral activity against DENV-4 infected hamster BHK-21 cells assessed as reduction in viral replication incubated for 4 hrs. It is filed as functional, organism-based.
For data set [20], the system named is dengue virus type 3. The data set is described as follows: Antiviral activity against DENV-3 infected hamster BHK-21 cells assessed as reduction in viral replication incubated for 4 hrs. It is filed as functional, organism-based.
Data set [21] relates to dengue virus type 2. The data set is described as follows: Antiviral activity against DENV-2 RNA-dependent RNA polymerase. The format is functional, organism-based.
Data set [22] in a line: Inhibition of DENV RNA-dependent RNA polymerase activity. Also on record: species or system Dengue virus.
The subject of data set [23] is dengue virus type 4. Description: Antiviral activity against DENV-4 RNA-dependent RNA polymerase infected in African green monkey Vero cells assessed as reduction in viral replication incubated for 2 days by qRT-PCR analysis. The format is functional, organism-based. To be noted: 48 h. A general note: In qPCR the cycle at which signal appears reflects the starting amount.

Data set [24] is described as follows: Inhibition of DENV RNA polymerase. Also on record: species or system Dengue virus.
Data set [25] concerns dengue virus type 1. The data set is described as follows: Antiviral activity against DENV-1 RNA-dependent RNA polymerase infected in African green monkey Vero cells assessed as reduction in viral replication incubated for 2 days by qRT-PCR analysis. The format is functional, organism-based. To be noted: 48 h.
Data set [26] in a line: Toxicity in rat assessed as animal survival at 15 to 30 mg/kg, iv measured for 7 days. The format is organism-based. The settings on record: in vivo, dose 15-30 mg/kg, time 7 day, read-out: Activity.
The subject of data set [27] is dengue virus type 3. The data set is described as follows: Antiviral activity against DENV-3 RNA-dependent RNA polymerase infected in African green monkey Vero cells assessed as reduction in viral replication incubated for 2 days by qRT-PCR analysis. The settings on record: 48 h. It is filed as functional, organism-based.
For data set [28], the system named is dengue virus type 2. The data set is described as follows: Antiviral activity against DENV-2 RNA-dependent RNA polymerase infected in African green monkey Vero cells assessed as reduction in viral replication incubated for 2 days by qRT-PCR analysis. It is filed as functional, organism-based. To be noted: 48 h.
Data set [29] deals with dengue virus type 2. Description: Antiviral activity against DENV-2 incubated for 72 hrs by MTT assay. It is filed as functional, organism-based.

Broadly, the IC50 is the concentration needed to halve the response being measured. What is called EC50 is the concentration that produces a half-maximal response. By CC50 is commonly meant the concentration giving 50% cytotoxicity. Broadly, the Kd is the concentration at which binding is half-saturated.

Sequence of NS5 (A0A143MHK7 whole entry): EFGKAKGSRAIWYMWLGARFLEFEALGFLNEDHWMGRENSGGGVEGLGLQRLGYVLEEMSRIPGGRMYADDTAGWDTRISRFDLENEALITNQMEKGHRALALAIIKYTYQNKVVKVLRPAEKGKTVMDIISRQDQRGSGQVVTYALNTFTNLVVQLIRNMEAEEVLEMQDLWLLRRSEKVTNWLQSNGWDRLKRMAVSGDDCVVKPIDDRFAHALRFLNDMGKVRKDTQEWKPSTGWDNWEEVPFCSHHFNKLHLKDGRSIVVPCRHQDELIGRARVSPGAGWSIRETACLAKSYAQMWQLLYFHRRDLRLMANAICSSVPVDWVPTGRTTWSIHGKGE

Consider `COc1nc(N)ncc1-c1cn(COCCO)cn1`, for which the IC50 in data set [1] stood at 1700 nM; in data set [2] it was 8.4 µM. In addition, in the data set on Dengue virus [3], the EC50 is 57 nM.

In the case of `OC[C@H]1O[C@@H](n2c3ccc(Cl)cc3c3c(-c4ccco4)ncnc32)[C@H](O)[C@@H]1O`, the CC50 in the data set with HepG2 is 170 nM; in the data set with THP-1, 1560 nM.

Regarding `CC(=O)Oc1ccc2oc(=O)sc2c1`, the EC50 in the data set on dengue virus type 1 [4] was 29.5 µM; with dengue virus type 3 [5], 29.4 µM; in the data set on dengue virus type 2 [7], 6 µM. Also, half-maximal inhibition in data set [6] (IC50) was put at 287 µM.

For `O=C(NC(=S)Nc1ccc(N2CCN(C(=O)c3cccs3)CC2)cc1)c1sc2ccccc2c1Cl`, the selectivity ratio in data set [8] is 206. Moreover, the midpoint of cytotoxicity in [9], the CC50 at 4 h, lay at 19.4 µM. For the same compound, the 50% effective concentration (EC50) in the data set on Zika virus [10] was 94 nM.

On to `Nc1ncnc2c1c(-c1cc3ccccc3o1)cn2[C@@H]1O[C@H](CO)[C@@H](O)[C@H]1O`, for which the EC50 in the data set with Zika virus [11] is 2200 nM; in the data set on Dengue virus [12], 13 µM. Moreover, at NS5, the IC50 was 500 nM.

For the compound `C#C[C@]1(O)[C@H](n2ccc(=O)[nH]c2=O)O[C@](F)(CO[P@](=O)(N[C@@H](C)C(=O)OC(C)C)Oc2ccccc2)[C@H]1O`, a half-maximal response with Dengue virus [13] (EC50) required 370 nM.

As for `CN1CCN(c2ccc(C(=O)Nc3n[nH]c4ccc(Cc5cc(F)cc(F)c5)cc34)c(NC3CCOCC3)c2)CC1` [ENTRECTINIB], the midpoint of the response in the data set with dengue virus type 2 [14], the EC50, lay at 2430 nM. In data set [15], the Kd was determined as 166 µM.

In the case of `Cc1ccc(C2N(c3ccccc3)CC3=C(CC(C)(C)CC3=O)N2c2ccccc2)cc1` (configuration not stated), the Kd in data set [16] was 900 nM.

As for IVERMECTIN, the IC50 turned out to be 2080 nM in the data set on dengue virus type 2 [17], 2320 nM in the data set on dengue virus type 1 [18], 1900 nM with dengue virus type 4 [19] and 1660 nM in the data set with dengue virus type 3 [20].

`CNC1CN(c2c(F)c(N)c3c(=O)c(C(=O)O)cn(C4CC4)c3c2Cl)CC1OC` (configuration not stated): a half-maximal response in the data set with dengue virus type 2 [21] (EC50) required 3.9 µM.

Consider `C[C@@]1(O)[C@H](O)[C@@H](CO)O[C@H]1n1ccc(N)nc1=O`, for which the IC50 in data set [22] was 19.3 µM; in data set [24], 11.2 µM. The EC50 in the data set with dengue virus type 4 [23] was determined as 2600 nM; in the data set with dengue virus type 1 [25] it was 2900 nM; with dengue virus type 3 [27] it was 2400 nM; in the data set on dengue virus type 2 [28], 2800 nM. Also, the survival at 168 h in data set [26] came out at 60%.

In the data set on dengue virus type 2 [29], `CN[C@@H]1CC[C@@H]2CN(c3c(F)c(N)c4c(=O)c(C(=O)O)cn(C5CC5)c4c3F)C[C@@H]21` showed an EC50 of 9.2 µM.

The values above are taken from ChEMBL document CHEMBL5150000, “Insights on Dengue and Zika NS5 RNA-dependent RNA polymerase (RdRp) inhibitors” (Eur J Med Chem, 2021).
